The results in this text go back to PubChem BioAssay AID2305 (GlaxoSmithKline (GSK), 2010).

Several values for one entry are separate records, joined by “and”; a condition that tells them apart may be missing. Identical values can stand only once.

The test system of this assay is P. falciparum 3D7 growth, pLDH absorbance. The experiment in a line: P. falciparum 3D7 growth inhibition, dose response, strain 3D7 (AID 2305).

By IC50 is commonly meant the concentration that gives 50% inhibition. A low value points to greater potency. Turning to `c1ccc2c(Nc3ccc(OCCOCCOc4ccc(Nc5c6ccccc6nc6ccccc56)cc4)cc3)c3ccccc3nc2c1`, the IC50 was found to be 280 nM.

On to `CCC(C)CN1CCN(c2ccc(NC(=O)c3cccs3)cc2)C(C)C1` (configuration not stated), for which the IC50 worked out at 540 nM. Compared with the last compound, the IC50 is about 1.9-fold higher.

Regarding `Cc1cccc(C)c1C1CCN(CCCCNC(=O)c2cc3ccccc3[nH]2)CC1`, the IC50 worked out at 890 nM.

Compound `OCCN1CCN(Cc2ccc(-c3cccc(-c4nc5ccccc5[nH]4)c3)cc2)CC1` came in with a half-inhibitory concentration (IC50) of 750 nM. `CN1CCN(CCc2ccc(N=Cc3c(=O)[nH]c4ccc5[nH]cccc5c34)cc2)CC1` showed a concentration for half-maximal inhibition (IC50) of 330 nM. Then `CNCCNCc1cccc(-c2ccc(-c3nc4c(C)cccc4[nH]3)s2)c1`, with 950 nM; and `COc1ccc(C2C(C(=O)Nc3cc(Cl)c(OC)cc3OC)c3ccccc3C(=O)N2C)cc1` (configuration not stated), with 820 nM. `O=C(NCCC1CCN(CCc2c[nH]c3ccccc23)CC1)Nc1ccc(Cl)c(Cl)c1` came in with an IC50 of 830 nM. Then `CCOC(=O)c1c(-c2ccccc2)[nH]c2c(sc3ccccc32)c1=O`, with 370 nM; and `COc1ccc2nccc(NC(=O)N3CCC(NCCOc4cc(F)cc(F)c4)CC3)c2n1`, with 770 nM; and `O=C(NCC1CCC(CNCCc2ccccc2)CC1)Nc1ccc(Cl)c(Cl)c1` (configuration not stated), with 740 nM.

The compound `OC1(c2ccc(Br)cc2)CCN(C2CCN(Cc3ccccc3)CC2)CC1` displayed an IC50 of 600 nM. Next, `Cc1cc(Cl)c(Cl)cc1NC(=O)Nc1cccc(C(F)(F)F)c1`: 870 nM. Next, `Cc1cc(N[C@@H](CC(C)C)C(=O)NCCOc2ccccc2)nc(NCCOc2ccccc2)n1`: 1490 nM; `Cc1ccc2[nH]c(-c3ccc(/C=C/C(=O)NC4CCN(Cc5ccccc5)CC4)cc3)nc2c1C`: 630 nM.

In turn, `COc1ccc(NC(=O)Nc2cccc(-c3ccc(-c4nc5c(C)cccc5[nH]4)s3)c2)cc1` showed an IC50 of 670 nM.

Compound `O=C(/C=C/c1cccs1)NCC(NCCCNc1cc(=O)c2ccccc2[nH]1)c1cc(Br)cc(Br)c1` (configuration not stated) came in with an IC50 of 890 nM. Then `O=C(/C=C/c1ccc(Cl)c(Cl)c1)NCCCCCCN1CCN(C(=O)Nc2ccc(Cl)c(C(F)(F)F)c2)CC1`, with 530 nM; and `NCC1CCCN1Cc1ccc(-c2cccc(-c3nc4ccc(F)cc4[nH]3)c2)cc1` (configuration not stated), with 750 nM.

`COc1ccc(CC(=O)Nc2ccc(Nc3nc(C)cc(N4CCCC4)n3)cc2)cc1` displayed an IC50 of 1110 nM. The IC50 values of the last two compounds are within 1.5-fold of each other.

As for `CC(C)(C)c1ccc(NC(=O)N[C@@H]2CCN(c3ccnc4ccccc34)C2)cc1`, the IC50 came out at 350 nM. Compared with the last compound, the IC50 is about 3.2-fold lower. Then `Cc1cc(CNCC2CCC(CNCCCc3ccccc3)CC2)ccc1O` (configuration not stated), with 870 nM; and `COc1ccc(Nc2nccc(-c3ccc4c(-c5ccsc5)cnc(N)c4c3)n2)cc1`, with 240 nM; and `CC(=O)COc1c(C2CCN(CCCCNC(=O)c3ccc(-c4ccc(C(F)(F)F)cc4)cc3)CC2)ccc2c1CCCC2`, with 780 nM. Next, `O=C(NCc1cccc2ccccc12)C1CCCN(C(=O)c2ccc(O)c(-c3ccc(Cl)c(Cl)c3)c2)C1` (configuration not stated): 1030 nM; `COc1cc2nc(NCc3nc4ccccc4[nH]3)nc(N)c2cc1OC`: 890 nM; `O=c1[nH]c(=O)n2c(nc3ccccc32)[nH]1`: 170 nM.

In the case of `CCN(CCCN1CCCCC1)c1cc(C)nc(Nc2ccc(Br)cc2F)n1`, the IC50 was 550 nM. Then `CC1CCN(CCCNc2ccc(C(=O)Nc3ccc(C(F)(F)F)cc3)cc2[N+](=O)[O-])CC1`, with 340 nM.

`Cc1ccc(C[C@@H](C)NC[C@H](O)c2cccc(C(F)(F)F)c2)cc1`: the IC50 is 880 nM and 710 nM.

`COc1cccc(OC)c1C(=O)N1CCC2(CC1)C(=O)N(CC(=O)NC1CCCCC1)CN2c1ccccc1` had an IC50 of 950 nM. Next, `O=C(NCc1ccccc1)c1ccc(C(=O)NCC2CNCCO2)cc1` (configuration not stated): 1140 nM.

`COC(=O)C(C)(C)c1ccc(CC(C)NCC(O)c2cccc(C(F)(F)F)c2)cc1` (configuration not stated) yielded a half-maximal inhibitory concentration (IC50) of 840 nM. Then `CCN(CCCN1CCCCC1)c1cc(C)nc(Nc2cccc(C(F)(F)F)c2C)n1`, with 610 nM. Then `Cc1cc(OCCCN2CCN(CCN3CCOCC3)CC2)ccc1NC(=O)COc1ccc(Cl)cc1C(=O)c1cc(Cl)cc(C#N)c1`, with 700 nM; and `CCCCCCCCn1c2c(c(=N)c3c1CCC3)CCCC2`, with 110 nM. Next, `CCC(C)(C)N[C@@H](C)[C@@H](O)c1ccc(C(F)(F)F)cc1`: 750 nM; `NC(N)=Nc1nc(CCCCCCCCc2csc(N=C(N)N)n2)cs1`: 600 nM. For `Cc1cccc(-c2nn(-c3ccccc3)c3[nH]c(=O)c(CNC4CCCC4)cc23)c1`, the IC50 stood at 760 nM. For the compound `COc1cc(N)cc2sc(N)nc12`, the IC50 was 250 nM.

For the compound `O=C(Nc1ccc(OC2CCN(Cc3ccccc3)CC2)c(Cl)c1)c1ccsc1`, the IC50 turned out to be 900 nM. The compound `Cc1cccc2[nH]c(-c3cccc(-c4cccc(C(=O)NCCc5cn(C)cn5)c4)c3)nc12` displayed an IC50 of 590 nM.

Compound `CCN(CCCN1CCCCC1)c1cc(C)nc(Nc2ccc(C)c(Cl)c2)n1` had a concentration for half-maximal inhibition (IC50) of 210 nM. Then `COc1ccc(NC(=O)CCNc2cc(C)nc(NCCOc3ccccc3)n2)cc1`, with 750 nM. Then `CCC1CN2CCc3cc(OC)c(OC)cc3C2CC1CC1NCCc2c1[nH]c1ccc(O)cc21` (configuration not stated), with 100 nM.

In the case of `CCOc1c(OC)ccc2c1CCN(CCN1CCC(CNC(=O)c3ccc(-c4ccc(C#N)cc4)cc3)CC1)C2`, the IC50 stood at 1080 nM. For the compound `CC1(C)CC(=O)c2c(O)cc(OCc3ccncc3)cc2O1`, the IC50 was 1040 nM. `CC(C)c1sc(N2CCN(C)CC2)nc1C(=O)NCCc1cccc(Cl)c1`: the IC50 worked out at 1490 nM. Then `COCCN1CCN(Cc2ccc(-c3cccc(-c4nc5ccccc5[nH]4)c3)cc2)CC1`, with 1110 nM.

`O=C(Nc1ccccc1)Nc1cccc(-c2ccc(-c3nc4ccc(C(F)(F)F)cc4[nH]3)cc2)c1` gave an IC50 of 230 nM. Then `CN1CCCC(CN2CCN(Cc3ccc(-c4ccc(-c5nc6ccccc6[nH]5)cc4)cc3)CC2)C1` (configuration not stated), with 140 nM; and `O=C(CCCCCNC(=O)c1ccc(O)c(-c2ccc(Cl)c(Cl)c2)c1)NCCN1CCCC1`, with 980 nM. As to `CCCCOc1ccc(-n2c(Nc3ccccc3)nc3cc(S(N)(=O)=O)ccc32)cc1`, the IC50 turned out to be 890 nM. Then `COc1ccc(CC(C)NCC(O)c2cccc(Br)c2)cc1` (configuration not stated), with 960 nM; and `COc1ccc(CN(C)CCCc2ccc(NC(=O)Cc3ccc4nc(-c5ccccc5)ccc4c3)cc2)cc1OC`, with 530 nM; and `CC(C)CN1C(=O)c2ccc(C(=O)Nc3nccs3)cc2C1=O`, with 970 nM. For `O=c1cc(NCCCNCc2cc3ccccc3s2)[nH]c2ccccc12`, the IC50 was 1270 nM. The IC50 values of the last two compounds are within 1.5-fold of each other. In turn, `O=c1ccccn1CCCC1CCCCN1` (configuration not stated) gave an IC50 of 810 nM. Next, `CCCCN(Cc1cc(Cl)c(OCC)c(OC)c1)c1ccc(C(O)(C(F)(F)F)C(F)(F)F)cc1`: 910 nM; `COc1ccc(CNC2CCN(C)CC2)cc1-c1ccc(S(=O)(=O)NCc2cccnc2)s1`: 840 nM; `CS(=O)(=O)c1ccc2c(c1)CCN(CCC1CCC(NC(=O)c3cc4cccc(Br)c4[nH]3)CC1)CC2` (configuration not stated): 1040 nM.

The compound `NC(=O)c1cccc(C(=O)Nc2ccc(-c3cccc(-c4nc5ccc(C(F)(F)F)cc5[nH]4)c3)cc2)c1` registered a half-inhibitory concentration (IC50) of 350 nM. Then `O=C(NCCCN1CCOCC1)c1ccc(-c2cccc(NC(=O)c3ccc(Cl)c(Cl)c3)c2)cc1`, with 680 nM; and `CCC(=O)Oc1ccc(NC(=O)c2cccc(OC)c2)cc1`, with 770 nM; and `Cc1noc(C)c1CN1Cc2ccccc2OC2(CCN(Cc3c[nH]c4cnccc34)CC2)C1`, with 1070 nM. `O=C(c1ccc(Cl)cc1Cl)N1CCCC(C(F)(F)F)C1` (configuration not stated) had a 50% inhibitory concentration (IC50) of 950 nM. The IC50 values of the last two compounds are within 1.5-fold of each other. For the compound `CCOc1ccc(-c2nc(NC(=O)Cc3cccc(OC)c3)sc2C)cc1`, the IC50 is 730 nM.

With `COc1ccc(C(C(=O)NC2CCN(C[C@H](O)c3ccnc4ccc(OC)cc34)CC2)N2CCN(c3ccc(F)cc3)CC2)cc1` (some centres not stated), the IC50 is 210 nM.

Compound `Cc1cccc(-n2c(Nc3ccc(C)c(Cl)c3)nc3ccc(S(=O)(=O)NC(C)C(C)C)cc32)c1` (configuration not stated) had a half-maximal inhibitory concentration (IC50) of 650 nM. `CC(=O)Nc1cccc(C(=O)Nc2nc3ccc(-c4cc(=O)[nH]c(Nc5ccccc5Cl)n4)cc3[nH]2)c1`: the IC50 is 690 nM. As for `Cc1cccn2c(=O)c3cc(C(=O)NCCN4CCOCC4)c(=N)n(CCc4ccccc4)c3nc12`, the IC50 amounted to 470 nM. The compound `C[C@H](CNc1ccnc(Nc2ccc3[nH]c(=O)[nH]c3c2)n1)c1ccccc1` displayed an IC50 of 1310 nM. Then `CN(C)CCCNc1nccc(N(C)c2ccc(NC(=O)Nc3cc(C(F)(F)F)ccc3F)cc2)n1`, with 980 nM; and `Oc1ccc(-c2ccccc2)cc1CN1CCCCC1`, with 900 nM; and `CCOC(=O)C1=C(C)NC2=C(C(=O)CC(C)(C)C2)C1c1ccc(Br)cc1` (configuration not stated), with 1160 nM. In turn, `N#Cc1ccc2[nH]cc(CN3CCC4(CC3)CN(CCNCc3ccccc3)C(=O)CO4)c2c1` yielded a concentration for half-maximal inhibition (IC50) of 760 nM. `Cc1cc(N[C@@H](CC(C)C)C(=O)NCc2cccc(F)c2)nc(NCC2CCCCC2)n1` registered an IC50 of 830 nM.

Compound `CN=C(N)c1ccc(NC(=O)c2ccc(C(=O)Nc3ccc(C(N)=NC)cc3)cc2)cc1` showed a half-inhibitory concentration (IC50) of 50 nM. Then `O=C(N[C@@H](Cc1ccccc1)[C@H](O)CNC1CCc2ccccc2C1)c1cc(C2CCCC2)cc(N2CCCC2=O)c1` (some centres not stated), with 160 nM. Then `O=C(Nc1nc2cc(S(=O)(=O)NCc3ccc(Cl)c(Cl)c3)ccc2n1CCCN1CCCC1)c1ccc(Cl)cc1`, with 940 nM. For the compound `O=C(Cn1c(SCc2cccc(F)c2F)cc(=O)c2ccccc21)N(CCn1ccnc1)Cc1ccc(-c2ccc(C(F)(F)F)cc2)cc1`, the IC50 was 770 nM. This IC50 and that of the compound before are within 1.5-fold of each other. In the case of `O=C(NCc1ccc(F)cc1)Nc1ccc(-c2cccc(-c3nc4ccc(C(F)(F)F)cc4[nH]3)c2)cc1`, the IC50 is 950 nM. Next, `COc1ccc(C2CC(c3cccs3)=NN2C(=O)COc2cccc3c2CCCC3O)cc1OC` (configuration not stated): 1150 nM; `CC(C)(CNCc1ccc(Cl)cc1)c1nc(-c2ccc(Cl)c(O)c2)c(-c2ccncc2)[nH]1`: 480 nM. On to `O=C(Nc1cccc(CN2CCCN(Cc3ccc4c(c3)OCO4)CC2)c1)c1ccc(Cl)c(Cl)c1`, for which the IC50 was determined as 890 nM. Next, `COc1cccc(CCNCc2ccc(-c3cccc(CNC4CCCC4)c3)cc2)c1`: 730 nM; `CCCCNCc1ccc(OCc2cccc(COc3ccc(CNCCCC)cc3I)c2)c(I)c1`: 1120 nM.
